Biological target: T1, BKB1 receptors (Homo sapiens, UniProt P46663)
T1 construct: Human (IMR-90) lung fibroblast cells expressing native B1 receptors; endogenous in cells; host or cells: IMR-90 human lung fibroblasts, interleukin-treated to up-regulate BKB1 receptors
T1 sequence (P46663 1-353): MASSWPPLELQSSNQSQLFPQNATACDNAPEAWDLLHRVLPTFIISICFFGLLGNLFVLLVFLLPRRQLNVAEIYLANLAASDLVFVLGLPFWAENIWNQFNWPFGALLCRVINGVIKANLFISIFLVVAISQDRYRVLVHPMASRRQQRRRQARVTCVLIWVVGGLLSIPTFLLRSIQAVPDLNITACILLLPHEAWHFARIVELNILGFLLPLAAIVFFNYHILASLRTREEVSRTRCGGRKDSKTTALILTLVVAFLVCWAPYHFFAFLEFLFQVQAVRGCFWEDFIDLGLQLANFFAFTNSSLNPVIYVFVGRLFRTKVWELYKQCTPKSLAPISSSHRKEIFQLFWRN
Experiment: Calcium mobilization assay (FLIPR), B1 receptors in IMR-90 cells
Assay type: cell-based
Details: Human IMR-90 lung fibroblast cells, up-regulated BKB1 receptors, agonist desArg10-kallidin (DAKD) 2 to 8 nM, calcium-dependent fluorescence
Experimental: Calcium mobilization assay (FLIPR)—Human (IMR-90) lung fibroblast cells expressing native B1 receptors were harvested by trypsinization and seeded into black wall/clear bottom 96-well plates (Costar 3904; Corning Life Sciences, Acton, Mass.) at approximately 13,000 cells/well. After 1 day incubation, cells were treated with […] (0.35 ng/ml) in 10% FBS/MEM for 2 h to up-regulate BKB1 receptors. Induced cells were loaded with fluorescent calcium indicator by incubation with 2.3 μM Fluo-4/acetoxymethyl ester (Invitrogen) at 37° C. for 1.5 h in the presence of an anion transport inhibitor (2.5 mM probenecid in 1% FBS/MEM). Extracellular dye was removed by washing with assay buffer (2.5 mM probenecid, 0.1% BSA in 20 mM HEPES/HBSS without bicarbonate or phenol red, pH 7.5) and cell plates were kept in the dark until used. Test compounds were assayed at eight concentrations in triplicate. Addition of test compounds to the cell plate and incubation for 5 min at 35° C., followed by the addition of 2 to 8 nM final BK1 agonist desArg^10-kallidin (DAKD, 3×EC50) was carried out in the fluorimetric imaging plate reader (FLIPR; Molecular Devices) while continuously monitoring calcium-dependent fluorescence.

SMILES | IC50 [µM]
CC(C(=O)Nc1ccncc1)c1ccc(Nc2ccc(F)cc2)cc1 (stereo not shown) [Compound 71, 2-{4-[(4-fluorophenyl)amino]phenyl}-N-(pyridin-4-yl)propanamide] | 4.47
COc1cccc(Nc2ccc(C(C)C(=O)Nc3cc(C)nn3C)cc2)c1 (stereo not shown) [Compound 10] | 7.94
CC(C(=O)Nc1cc(Cl)cc(Cl)c1S(N)(=O)=O)c1ccc(OS(=O)(=O)c2ccccc2Cl)cc1 (stereo not shown) [Compound 81, 4-{1-[(3,5-dichloro-2-sulfamoylphenyl)amino]-1-oxopropan-2-yl}phenyl 2-chlorobenzenesulfonate] | 8.71
CC(C(=O)Nc1ccncc1)c1ccc(OS(=O)(=O)C(F)(F)F)cc1 (stereo not shown) [Compound 47, 4-[1-oxo-1-(pyridin-4-ylamino)propan-2-yl]phenyl trifluoromethanesulfonate] | 3.24
CC(C)Cc1ccc(C(C)C(=O)NC(N)=O)cc1 (stereo not shown) [Compound 38, N-carbamoyl-2-[4-(2-methylpropyl)phenyl]propanamide] | 20
CC(C(=O)NCCN1CCCC1)c1cccc(Oc2cccc(OC(F)(F)F)c2)c1 (stereo not shown) [Compound 19, N-[(2-pyrrolidin-1-yl)ethyl]-2-{3-[3-(trifluoromethoxy)phenoxy]phenyl}propanamide] | 7.76
C=C(C)CNC(=O)C(C)c1cccc(C(=O)c2cccs2)c1 (stereo not shown) [Compound 23, N-(2-methylprop-2-en-1-yl)-2-[3-(thiophen-2-ylcarbonyl)phenyl]propanamide] | 21.9
CC(C(=O)Nc1nccs1)c1cccc(C(=O)c2ccccc2)c1 (stereo not shown) [Compound 33, 2-[3-(phenylcarbonyl)phenyl]-N-(1,3-thiazol-2-yl)propanamide] | 10.2
CC(C)(C(=O)NCCc1ccncc1)c1ccc(OS(=O)(=O)C(F)(F)F)cc1 [Compound 7, 4-(2-methyl-1-oxo-1-{[2-(pyridin-4-yl)ethyl]amino}propan-2-yl)phenyl trifluoromethanesulfonate] | 11.5
CC(C(=O)Nc1cnccn1)c1ccc(N2CCCCC2)cc1 (stereo not shown) [Compound 77, 2-[4-(piperidin-1-yl)phenyl]-N-(pyrazin-2-yl)propanamide] | 4.37
CCNC(=O)C(C)c1cccc(Nc2cc(OC)cc(C(F)(F)F)c2)c1 (stereo not shown) [Compound 56, N-ethyl-2-(3-{[3-methoxy-5-(trifluoromethyl)phenyl]amino}phenyl)propanamide] | 7.76
Cc1ccc(OCC(O)CNC(=O)C(C)c2ccc(Nc3nc(C(F)(F)F)co3)cc2)cc1C (stereo not shown) [Compound 32, N-[2-hydroxy-3-(3,4-dimethylphenoxy)propyl]-2-(4-{[4-(trifluoromethyl)-1,3-oxazol-2-yl]amino}phenyl)propanamide] | 8.32
CC(C(=O)NCCN1CCOCC1)c1ccc(Oc2cccc3ccccc23)cc1 (stereo not shown) [Compound 67, 2-[4-(naphthalen-1-yloxy)phenyl]-N-[2-(morpholin-4-yl)ethyl]propanamide] | 4.07
CC1CC(C)CN(CCNC(=O)C(C)c2ccc(Nc3nc(C(F)(F)F)cs3)cc2)C1 (stereo not shown) [Compound 42, N-[2-(3,5-dimethylpiperidin-1-yl)ethyl]-2-(4-{[4-(trifluoromethyl)-1,3-thiazol-2-yl]amino}phenyl)propanamide] | 6.61
Cc1ccc(OCC(O)CNC(=O)C(C)c2ccc(OS(=O)(=O)C(F)(F)F)cc2)cc1C (stereo not shown) [Compound 51, 4-[3-(3,4-dimethylphenoxy)-2-hydroxypropyl]amino-1-oxopropan-2-yl)phenyl trifluoromethanesulfonate] | 11.5
COc1cccc(CN(C)CCNC(=O)C(C)c2ccc(Nc3nc(C(F)(F)F)co3)cc2)c1 (stereo not shown) [Compound 31, N-{2-[(3-methoxybenzyl)(methyl)amino]ethyl}-2-(4-{[4-(trifluoromethyl)-1,3-oxazol-2-yl]amino}phenyl)propanamide] | 7.76
CC(F)(C(=O)Nc1ccsc1S(N)(=O)=O)c1cccc(Nc2nc(C(F)(F)F)cs2)c1 (stereo not shown) [Compound 4, 2-fluoro-N-(2-sulfamoylthiophen-3-yl)-2-(3-{[4-(trifluoromethyl)-1,3-thiazol-2-yl]amino}phenyl)propanamide] | 4.27
CC(C(=O)NCC(C)(C)N)c1cccc(Oc2cccc(OC(F)(F)F)c2)c1 (stereo not shown) [Compound 18] | 2.09
CC(C(=O)NC(c1ccco1)N1CCOCC1)c1ccc(Nc2nc(C(F)(F)F)cs2)cc1 (stereo not shown) [Compound 43, N-[furan-2-yl(morpholin-4-yl)methyl]-2-(4-{[4-(trifluoromethyl)-1,3-thiazol-2-yl]amino}phenyl)propanamide] | 12.9
Cc1cc(NC(=O)C(C)c2ccc(CC(C)C)cc2)n(C)n1 (stereo not shown) [Compound 40, N-(1,3-dimethyl-1H-pyrazol-5-yl)-2-[4-(2-methylpropyl)phenyl]propanamide] | 2.09
COC(=O)C(CNC(=O)OC(C)(C)C)NC(=O)C(C)c1ccc(Oc2cccc3ccccc23)cc1 (stereo not shown) [Compound 60, methyl 3-[(tert-butoxycarbonyl)amino]-2-[4-(naphthalen-1-yloxyphenyl)propanoyl]aminopropanoate] | 10.5

The remaining compounds from weak to strong by IC50, led by results:

IC50 [µM] | SMILES
14.5 | COc1cc(Nc2cccc(C(C)C(=O)Nn3cccc3)c2)cc(C(F)(F)F)c1 (stereo not shown) [Compound 53, 2-(3-{[3-methoxy-5-(trifluoromethyl)phenyl]amino}phenyl)-N-(1H-pyrrol-1-yl)propanamide]
13.2 | CC(F)(C(=O)NCCNc1ccccn1)c1ccc(OS(=O)(=O)C(F)(F)F)cc1 (stereo not shown) [Compound 3, 4-(2-fluoro-1-oxo-1-{[2-(pyridin-2-ylamino)ethyl]amino}propan-2-yl)phenyl trifluoromethanesulfonate]
11.5 | CC(C(=O)Nc1ccc(Cc2ccncc2)cc1)c1ccc(Nc2nc(C(F)(F)F)cs2)cc1 (stereo not shown) [Compound 44, N-[4-(pyridin-4-ylmethyl)phenyl]-2-(4-{[4-(trifluoromethyl)-1,3-thiazol-2-yl]amino}phenyl)propanamide]
9.12 | CC(C(=O)Nc1nc(C(C)(C)C)cs1)c1ccc(NS(=O)(=O)C(C)C)cc1 (stereo not shown) [Compound 21, 2-{4-[(propan-2-ylsulfonyl)amino]phenyl}-N-(4-tert-butyl-1,3-thiazol-2-yl)propanamide]
9.12 | CC(C(=O)Nc1ccncn1)c1cccc(Nc2ccc(N3CCOCC3)cc2)c1 (stereo not shown) [Compound 15, 2-(3-{[4-(morpholin-4-yl)phenyl]amino}phenyl)N-(pyrimidin-4-yl)propanamide]
8.51 | CCCC/C=C/c1cccc(C(C)C(=O)NCCNC(C)C)c1 (stereo not shown) [Compound 27, 2-{3-[hex-1-en-1-yl]phenyl}-N-[2-(propan-2-ylamino)ethyl]propanamide]
7.24 | CC(C(=O)NCCNc1ccccc1)c1cccc(Oc2cccc(F)c2)c1 (stereo not shown) [Compound 12, 2-[3-(3-fluorophenoxy)phenyl]-N-[2-(phenylamino)ethyl]propanamide]
6.92 | COc1cc(Nc2cccc(C(C)C(=O)NC3CCCCC3N)c2)cc(C(F)(F)F)c1 (stereo not shown) [Compound 59, N-(2-aminocyclohexyl)-2-[3-{[3-methoxy-5-(trifluoromethyl)phenyl]amino}phenyl]propanamide]
6.17 | CC(C(=O)Nc1ccncc1)c1ccc(Oc2cccc(F)c2)cc1 (stereo not shown) [Compound 68, 2-[4-(3-fluroophenoxy)phenyl]-N-(pyridin-4-yl)propanamide]
6.17 | Cc1ccnn1CCNC(=O)C(C)(F)c1ccc(OS(=O)(=O)C(F)(F)F)cc1 (stereo not shown) [Compound 2, 4-(2-fluoro-1-{[2-(5-methyl-1H-pyrazol-1-yl)ethyl]amino}-1-oxopropan-2-yl)phenyl trifluoromethanesulfonate]
5.75 | COc1cccc(Nc2ccc(C(C)C(=O)Nc3ccncn3)cc2)c1OC (stereo not shown) [Compound 26, 2-{4-[(2,3-dimethoxyphenyl)amino]phenyl}-N-(pyrimidin-4-yl)propanamide]
5.75 | CC(C(=O)Nc1ccncc1)c1ccc(Nc2ccccc2-n2cccc2)cc1 (stereo not shown) [Compound 82]
3.63 | COc1cccc(CN(C)CCCNC(=O)C(C)c2ccc(OS(=O)(=O)C(F)(F)F)cc2)c1 (stereo not shown) [Compound 50, 4-(1-{[3-[3-methoxybenzyl(methyl)amino]propyl}amino-1-oxopropan-2-yl)phenyl trifluoromethanesulfonate]
3.47 | COc1cc(Nc2cccc(C(C)C(=O)NCCNCc3ccccc3)c2)cc(C(F)(F)F)c1 (stereo not shown) [Compound 57, 2-{3-[(3-methoxy-5-(trifluoromethyl)phenyl)amino]phenyl}-N-[2-(benzylamino)ethyl]propanamide]
2.82 | CC(C(=O)Nc1ccncc1)c1cccc(Oc2ccc3ccccc3c2)c1 (stereo not shown) [Compound 73, 2-[3-(naphthalen-2-yloxy)phenyl]-N-(pyridin-4-yl)propanamide]
1 | CC(C(=O)Nc1ccncc1)c1cccc(Nc2ccc(F)cc2)c1 (stereo not shown) [Compound 74, 2-{3-[(4-fluorophenyl)amino]phenyl}-N-(pyridin-4-yl)propanamide]
